Data as given in PMC7272617 (Scientific Reports, 2020).
Converted amounts (≈) assume the structure as drawn. Like-named read-outs stand apart in the source and are kept apart here.

Legend:
[1] = tested on: Pseudomonas aeruginosa ATCC 27853; assay: microbe, parasite or virus in culture; details: ATCC27853, 24 h
[2] = tested on: MDR P. aeruginosa clinical isolate No.1; assay: microbe, parasite or virus in culture; details: Pseudomonas aeruginosa
[3] = tested on: MDR P. aeruginosa clinical isolate No.2; assay: microbe, parasite or virus in culture; details: Pseudomonas aeruginosa
[4] = tested on: MDR P. aeruginosa clinical isolate No.3; assay: microbe, parasite or virus in culture; details: Pseudomonas aeruginosa
[5] = tested on: MDR P. aeruginosa clinical isolate No.4; assay: microbe, parasite or virus in culture; details: Pseudomonas aeruginosa
[6] = tested on: MDR P. aeruginosa clinical isolate No.5; assay: microbe, parasite or virus in culture; details: Pseudomonas aeruginosa
[7] = tested on: MDR P. aeruginosa clinical isolate No.6; assay: microbe, parasite or virus in culture; details: Pseudomonas aeruginosa
[8] = tested on: MDR P. aeruginosa clinical isolate No.7; assay: microbe, parasite or virus in culture; details: Pseudomonas aeruginosa
[9] = tested on: MDR P. aeruginosa clinical isolate No.8; assay: microbe, parasite or virus in culture; details: Pseudomonas aeruginosa
[10] = tested on: MDR P. aeruginosa clinical isolate No.9; assay: microbe, parasite or virus in culture; details: Pseudomonas aeruginosa
[11] = tested on: MDR P. aeruginosa clinical isolate No.10; assay: microbe, parasite or virus in culture; details: Pseudomonas aeruginosa
[12] = tested on: MDR P. aeruginosa clinical isolate No.11; assay: microbe, parasite or virus in culture; details: Pseudomonas aeruginosa
[13] = tested on: MDR P. aeruginosa clinical isolate No.12; assay: microbe, parasite or virus in culture; details: Pseudomonas aeruginosa
[14] = tested on: MDR P. aeruginosa clinical isolate No.13; assay: microbe, parasite or virus in culture; details: Pseudomonas aeruginosa
[15] = tested on: MDR P. aeruginosa clinical isolate No.14; assay: microbe, parasite or virus in culture; details: Pseudomonas aeruginosa
[16] = tested on: human red blood cells (hRBCs); assay: Hemolytic activity, hemoglobin release; details: 2% hRBC, 1 h, 37 °C
Experimental: Hemolytic activity of the peptides was assayed against human red blood cells (hRBCs) by measuring the amount of hemoglobin released after treatment. The hRBCs, freshly collected from a healthy volunteer in polycarbonate tubes containing heparin, were washed three times in sterile phosphate buffered saline (PBS) and centrifuged at 2,000 × g for 5 min or until the supernatant became clear. […] After 1 h of incubation at 37 °C, intact hRBCs were pelleted by centrifugation at 2,000 × g for 10 min. The supernatant was transferred to a new 96-well plate and the release of hemoglobin was monitored by measurement of absorbance at 405 nm using a Multiskan FC microplate reader. The hRBCs in PBS only (ODBlank) and in 0.1% Triton X-100 (ODTriton X-100) were employed as negative (0% hemolysis) and positive (100% hemolysis) controls, respectively. The percentage of hemolysis was calculated according to the following equation: %Hemolysis=(ODSample−ABlank)/(ODTritonX−100−ODBlank)×100

[17] = tested on: all Gram-negative strains; assay: Mean MIC and therapeutic index, Gram-negative strains; type: cell-based; details: 7 Gram-negative strains of Table 3
Experimental: (§1) The antimicrobial activity of the peptides was determined against both Gram-positive and -negative bacteria including 14 MDR P. aeruginosa clinical isolates from Bhumibol Adulyadej Hospital (Tables 1 and 3). The minimal inhibitory concentration (MIC) of each peptide was measured according to a modification of the National Committee for Clinical Laboratory Standards (NCCLS) broth microdilution method as previously described. Briefly, bacterial cells in mid-log phase were cultured in Müeller-Hinton broth (MHB) and then diluted to 10^7 CFU/ml. […] Plates were incubated at 37 °C for 24 h, and MICs were defined as the lowest concentration of peptide that prevented visible turbidity. Cultures without peptides and uninoculated MHB were employed as positive and negative controls, respectively. Colony count assays were performed to determine the minimal bactericidal concentrations (MBCs) for determination of time-killing activity. As previously described, a 50 μl aliquot from each non-turbid well identified in the MIC determination experiment was spread on agar plates.
(§2) To further evaluate the global activity of these peptides, the geometric mean (GM) MIC and the therapeutic index (TI) of each were calculated (Table 3). The TI, a widely used parameter to evaluate cell selectivity and specificity of antimicrobial agents, was calculated as the ratio of MHC (the concentration that causes 10% hemolysis) to the geometric mean of MICs[22]. Higher TIs indicated greater cell selectivity and specificity.

[18] = tested on: all Gram-positive strains; assay: Mean MIC and therapeutic index, Gram-positive strains; type: cell-based; details: 5 Gram-positive strains of Table 3
Experimental: as §1, §2

[19] = tested on: P. aeruginosa ATCC 27853; assay: Membrane permeability (PI) and depolarization (BOX), flow cytometry; type: cell-based, Pseudomonas aeruginosa; details: 1 × MIC, 30 min; for permeabilized and depolarized cells (BOX+PI+): 37 °C, triplicate
Experimental: Their outer and inner membranes provide important protection for Gram-negative bacteria. To assess membrane permeability and depolarization induced by PA-13, the DNA intercalating dyes propidium iodide (PI) and bis-(1,3-dibutylbarbituric acid) trimethine oxonol (BOX) were used as previously described. The fluorescence conferred by these dyes is generally associated with the loss of membrane integrity and potential, respectively.
Briefly, P. aeruginosa ATCC 27853 was cultured to mid-logarithmic phase and harvested by centrifugation at 2,000 × g for 5 min. The bacterial cells were washed thrice with PBS and diluted to 10^7 CFU/ml in 50 ml of PBS. […] Bacterial pellets were harvested and washed with PBS by centrifugation at 10,000 × g for 10 min. […] Untreated bacterial cells (no peptide) served as a negative control, whereas bacterial cells treated with melittin served as a positive control. Data was recorded using a flow cytometer (CytoFlex, Beckman Coulter) at a laser excitation wavelength of 488 nm. Forward scatter (FS), side scatter (SS), green fluorescence (530/30 nm) from BOX and red fluorescence (585/42 nm) emitted by PI were collected using logarithmic scales. 25,000 cells, defined according to their scatter parameters, were counted in each sample. The experiments were performed in triplicate and the data was analyzed using Kaluza software.

[20] = tested on: Pseudomonas aeruginosa ATCC 27853; details: P. aeruginosa ATCC 27853; MHB, 10^7 CFU/ml, 37 °C, 24 h, no visible turbidity
[21] = tested on: Escherichia coli O157:H7 MT strain; details: E. coli O157:H7 MT strain; MHB, 37 °C, 24 h
[22] = tested on: Shigella sonnei ATCC 11060; details: MHB, 37 °C, 24 h
[23] = tested on: Salmonella Typhimurium ATCC 13311; details: Salmonella Typhimurium ATCC 13311; MHB, 37 °C, 24 h
[24] = tested on: Vibrio cholera O1 Inaba DMST 16261; details: MHB, 37 °C, 24 h
[25] = tested on: Acinetobacter baumannii MT strain; details: Acinetobacter baumannii MT strain; MHB, 37 °C, 24 h
[26] = tested on: Staphylococcus epidermidis ATCC 12228; details: S. epidermidis ATCC 12228; MHB, 37 °C, 24 h
[27] = tested on: Bacillus cereus ATCC 11778; details: Bacillus cereus ATCC 11778; MHB, 37 °C, 24 h
[28] = tested on: Enterococcus faecalis ATCC 29212; details: Enterococcus faecalis ATCC 29212; MHB, 37 °C, 24 h
[29] = tested on: Listeria monocytogenes 10403 s; details: Listeria monocytogenes 10403 s; MHB, 37 °C, 24 h
[30] = tested on: L929 mouse fibroblast cells; assay: Cytotoxicity, MTT viability assay; details: 250 µg/ml, 24 h, triplicate

For C[C@@H](O)[C@H]1C(=O)N2C(C(=O)O)=C(SCCN=CN)C[C@H]12 [Imipenem], the MIC [1] was ≤ 0.98 µg/mL, the MIC [2] was > 125 µg/mL and the MIC [3] was > 125 µg/mL. The MIC [4] was > 125 µg/mL, the MIC [5] was > 125 µg/mL and the MIC [6] was 125 µg/mL (≈ 418 µM). The MIC [7] was > 125 µg/mL, the MIC [8] was > 125 µg/mL and the MIC [9] was 125 µg/mL (≈ 418 µM). For the same compound, the MIC [10] was > 125 µg/mL, the MIC [11] was > 125 µg/mL and the MIC [12] was > 125 µg/mL. For the same compound, the MIC [13] was 125 µg/mL (≈ 418 µM), the MIC [14] was 62.5 µg/mL (≈ 209 µM) and the MIC [15] was > 125 µg/mL.

With CC[C@H](C)[C@H](NC(=O)CN)C(=O)NCC(=O)N[C@@H](C)C(=O)N[C@H](C(=O)N[C@@H](CC(C)C)C(=O)N[C@@H](CCCCN)C(=O)N[C@H](C(=O)N[C@@H](CC(C)C)C(=O)N[C@H](C(=O)N[C@H](C(=O)NCC(=O)N[C@@H](CC(C)C)C(=O)N1CCC[C@H]1C(=O)N[C@@H](C)C(=O)N[C@@H](CC(C)C)C(=O)N[C@H](C(=O)N[C@@H](CO)C(=O)N[C@@H](Cc1c[nH]c2ccccc12)C(=O)N[C@H](C(=O)N[C@@H](CCCCN)C(=O)N[C@@H](CCCNC(=N)N)C(=O)N[C@@H](CCCCN)C(=O)N[C@@H](CCCNC(=N)N)C(=O)N[C@@H](CCC(N)=O)C(=O)N[C@@H](CCC(N)=O)C(N)=O)[C@@H](C)CC)[C@@H](C)CC)[C@@H](C)O)[C@@H](C)O)C(C)C)C(C)C [Melittin, reference compound] the “concentration at which hemolysis was complete (100%)” value [16] was 1950 ng/mL, the “GM (Gr.− strains): geometric mean of MIC values from all Gram-negative strains” value [17] was 10.60 µg/mL and the “GM (Gr.+ strains): geometric mean of MIC values from all Gram-positive strains” value [18] was 3.52 µg/mL. The “cell population BOX+PI-” value [19] was 2.70%, the “cell population BOX-PI+” value [19] was 0.12% and the “cell population BOX-PI-” value [19] was 3.14%. The “permeabilized and depolarized cells (BOX+PI+)” value [19] was 94.04%, the “permeabilized and depolarized cells (BOX+PI+)” value ([19]; listed as melittin) was 94.04 ± 3.25% and the MIC [20] was 15.63 µg/mL (≈ 5.49 µM). It also gave an MIC [21] of 7.81 µg/mL (≈ 2.74 µM), an MIC [22] of 3.91 µg/mL (≈ 1.37 µM) and an MIC [23] of 3.91 µg/mL (≈ 1.37 µM). It also gave an MIC [24] of 3.91 µg/mL (≈ 1.37 µM), an MIC [25] of 7.81 µg/mL (≈ 2.74 µM) and an MIC [26] of 3.91 µg/mL (≈ 1.37 µM). It also gave an MIC [27] of 3.91 µg/mL (≈ 1.37 µM), an MIC [28] of 1.95 µg/mL (≈ 0.685 µM) and an MIC [29] of 3.91 µg/mL (≈ 1.37 µM). The “L929 cell survival at the maximum concentration” value [30] was “less than 1%”.
